These results are taken from patent US20260232714A1, “COMPOSITION CONTAINING NICOTINAMIDE MONONUCLEOTIDE” (MEIJI HOLDINGS CO., LTD., priority 2023, published 2026).

“Also recorded” adds a separate entry of the source.

The data set in a line: Test 1: blood NMN concentration after oral or sublingual administration of NMN (plasma, LC-MS/MS). In kind it is in vivo, human. As for the experimental part:
Tablets were used for oral administration. The content of NMN was 500 mg.
Powder was used for sublingual administration. The content of NMN was 250 mg.
One adult with no abnormal health conditions participated in the test. The test was conducted over two separate days.
Then, 250 mg of NMN (powder) was placed under the tongue, so that the powder was dissolved with saliva, and the test subject was maintained in that state. After 1 minute, the test subject spit out all NMN from the mouth, and blood was collected from the fingertip 5, 10, 15, and 30 minutes after the NMN was placed under the tongue.
NMN concentration was determined by LC-MS/MS. Details of the measurements are described below.
• Liquid A: 5 mM Ammonium formate aqueous solution • Liquid B: Acetonitrile

Setting [1] is: sublingual administration, in some test subjects.

For `NC(=O)c1ccc[n+]([C@@H]2O[C@H](COP(=O)([O-])O)[C@@H](O)[C@H]2O)c1` [NMN, nicotinamide mononucleotide], the “blood NMN concentration compared with that observed before NMN ingestion (0 minute)” value (oral administration, one tablet 500 mg NMN with water, one adult, 5-60 minutes, plasma) is “virtually unchanged; also recorded: does not increase; also recorded: almost unchanged”. Besides, under setting [1], the maximum blood concentration was not below 5 µg/mL and the “time to reach the maximum blood concentration after administration” value was “about 5 minutes”.
